Measured values as given in the supplement of paper PMC11208160.

Assay: recombinant UMI read abundance after kanamycin selection (control-corrected) (log10(CPM+1)); higher = more efficient recombination; extreme values may be limits of the assay; sequences stand for … in AGTGCAGAGAAAATCGGCCAGTTTTCTCTGCCTGCAGTCCGCATGCCGTGGGACCCCTTGGGTTCTAACCTGTTGCCTAGATTTATGCAGCGGACTGCCTTTCTCCCAAAGTGATAAACCGG…AGGTTGGTTTCACT; site = the 11-nt donor
Procedure, shortened: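 Under IPTG (0.07 mM) plus kanamycin, or without selection, Escherichia coli carrying a UMI-tagged donor and donor-binding-loop pair library and a target plasmid for the IS621 bridge recombinase were plated in two replicates. Recombinant UMIs were PCR-amplified across the donor–target junction and sequenced. Counts were converted to CPM, averaged over replicates, scaled by control-derived factors and reported as log10(CPM+1).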
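Note: IS621 bridge recombinase in Escherichia coli cells against a fixed T5 target plasmid.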

Row | Sequence | recombinant UMI read abundance (log10)
1 | ATCAATACATGGACCGGTTTTCCCGGTAATCCGTATTTGAC (site ATCGATACTGT) | 2.2
2 | ATCAATACATGGACCGGTTTTCCCGGTAATCCGTATTTGAC (site ATCTATACTGT) | 0
3 | ATCAGAACATGGACCGGTTTTCCCGGTAATCCGTATTTGAT (site ATCAGAACTAT) | 1.88
4 | ATCAGAGCATGGACCGGTTTTCCCGGTAATCCGTATTTGTC (site ATCAGAGCTGA) | 1.82
5 | ATCATGGCATGGACCGGTTTTCCCGGTAATCCGTATTTGCA (site ATCATGGCTTG) | 2.21
6 | ATCCAAGCATGGACCGGTTTTCCCGGTAATCCGTATTTGTG (site ATCCAAGCTCA) | 1.51
7 | ATCCAAGCATGGACCGGTTTTCCCGGTAATCCGTATTTGTG (site ATCCAAGCTCC) | 0.0133
8 | ATCCAAGCATGGACCGGTTTTCCCGGTAATCCGTATTTGTG (site ATCCAAGCTCG) | 1.13
9 | ATCCAAGCATGGACCGGTTTTCCCGGTAATCCGTATTTGTG (site ATCCAAGCTCT) | 0.581
10 | ATCCCAGCATGGACCGGTTTTCCCGGTAATCCGTATTTGAG (site ATCCAAGCTCT) | 0.00798
11 | ATCCCAGCATGGACCGGTTTTCCCGGTAATCCGTATTTGAG (site ATCCCAGCTCT) | 0.952
12 | ATCCCAGCATGGACCGGTTTTCCCGGTAATCCGTATTTGAG (site ATCCGAGCTCT) | 0.00574
13 | ATCCCAGCATGGACCGGTTTTCCCGGTAATCCGTATTTGAG (site ATCCTAGCTCT) | 0
14 | ATCCCTACATGGACCGGTTTTCCCGGTAATCCGTATTTGAG (site ATCCCTACTCT) | 0.465
15 | ATCCCTACATGGACCGGTTTTCCCGGTAATCCGTATTTGAG (site CTCCCTACTCT) | 0.196
16 | ATCCCTACATGGACCGGTTTTCCCGGTAATCCGTATTTGAG (site GTCCCTACTCT) | 0.0127
17 | ATCCCTACATGGACCGGTTTTCCCGGTAATCCGTATTTGAG (site TTCCCTACTCT) | 0.854
18 | ATCCGCTCATGGACCGGTTTTCCCGGTAATCCGTATTTGCG (site ATCCGCTCTCG) | 1.19
19 | ATCCTAGCATGGACCGGTTTTCCCGGTAATCCGTATTTGAG (site ATCCAAGCTCT) | 0.122
20 | ATCCTAGCATGGACCGGTTTTCCCGGTAATCCGTATTTGAG (site ATCCCAGCTCT) | 0.0117
21 | ATCCTAGCATGGACCGGTTTTCCCGGTAATCCGTATTTGAG (site ATCCGAGCTCT) | 0.0408
22 | ATCCTAGCATGGACCGGTTTTCCCGGTAATCCGTATTTGAG (site ATCCTAGCTCT) | 0.651
23 | ATCCTAGCATGGACCGGTTTTCCCGGTAATCCGTATTTGTT (site AACCTAGCTAA) | 0.00989

Row | Sequence | recombinant UMI read abundance (log10)
24 | ATCCTAGCATGGACCGGTTTTCCCGGTAATCCGTATTTGTT (site ACCCTAGCTAA) | 0.0137
25 | ATCCTAGCATGGACCGGTTTTCCCGGTAATCCGTATTTGTT (site AGCCTAGCTAA) | 0.0169
26 | ATCCTAGCATGGACCGGTTTTCCCGGTAATCCGTATTTGTT (site ATCCTAGCTAA) | 0.0177
27 | ATCCTTGCATGGACCGGTTTTCCCGGTAATCCGTATTTGAT (site ATCCTTGCTAT) | 2.19
28 | ATCGACCCATGGACCGGTTTTCCCGGTAATCCGTATTTGGT (site ATCGACCCTAC) | 0
29 | ATCGACCCATGGACCGGTTTTCCCGGTAATCCGTATTTGTG (site ATCGACCCTCA) | 0.0241
30 | ATCGCTGCATGGACCGGTTTTCCCGGTAATCCGTATTTGCC (site ATCGCTGCTGG) | 2.27
31 | ATCGGGTCATGGACCGGTTTTCCCGGTAATCCGTATTTGGT (site ATCGGGTCTAC) | 1.85
32 | ATCGTATCATGGACCGGTTTTCCCGGTAATCCGTATTTGTC (site ATCGTATCTGA) | 3.35
33 | ATCGTCCCATGGACCGGTTTTCCCGGTAATCCGTATTTGAT (site ATCGTCCCTAT) | 0.563
34 | ATCTACCCATGGACCGGTTTTCCCGGTAATCCGTATTTGGC (site ATCTACCCTGC) | 0.584
35 | ATCTAGACATGGACCGGTTTTCCCGGTAATCCGTATTTGGG (site AACTAGACTCC) | 0.0333
36 | ATCTAGACATGGACCGGTTTTCCCGGTAATCCGTATTTGGG (site ACCTAGACTCC) | 0.00659
37 | ATCTAGACATGGACCGGTTTTCCCGGTAATCCGTATTTGGG (site AGCTAGACTCC) | 0.313
38 | ATCTAGACATGGACCGGTTTTCCCGGTAATCCGTATTTGGG (site ATCTAGACTCC) | 0.0102
39 | ATCTATACATGGACCGGTTTTCCCGGTAATCCGTATTTGAT (site ATCTATACTAT) | 1.02
40 | ATCTATACATGGACCGGTTTTCCCGGTAATCCGTATTTGAT (site ATCTATACTCT) | 0.147
41 | ATCTATACATGGACCGGTTTTCCCGGTAATCCGTATTTGAT (site ATCTATACTGT) | 0
42 | ATCTATACATGGACCGGTTTTCCCGGTAATCCGTATTTGAT (site ATCTATACTTT) | 0.00795
43 | ATCTATCCATGGACCGGTTTTCCCGGTAATCCGTATTTGCT (site ATCTATCCTAG) | 1.24
44 | ATCTCTGCATGGACCGGTTTTCCCGGTAATCCGTATTTGCT (site ATCTCTGCTAG) | 1.73
45 | ATCTGCCCATGGACCGGTTTTCCCGGTAATCCGTATTTGCT (site ATCTGCCCTAG) | 0.548
46 | ATCTGCTCATGGACCGGTTTTCCCGGTAATCCGTATTTGGA (site ATCTGCTCTTC) | 1.49

Row | Sequence | recombinant UMI read abundance (log10)
47 | ATCTGGGCATGGACCGGTTTTCCCGGTAATCCGTATTTGGT (site ATCTGGGCTAC) | 0.162
48 | ATCTTGGCATGGACCGGTTTTCCCGGTAATCCGTATTTGGG (site ATCTTGGCTCC) | 0.448
49 | ATGAAGACATGGACCGGTTTTCCCGGTAATCCGTATTTGCA (site AAGAAGACTTG) | 1.29
50 | ATGAAGACATGGACCGGTTTTCCCGGTAATCCGTATTTGCA (site ACGAAGACTTG) | 2.34
51 | ATGAAGACATGGACCGGTTTTCCCGGTAATCCGTATTTGCA (site AGGAAGACTTG) | 1.02
52 | ATGAAGACATGGACCGGTTTTCCCGGTAATCCGTATTTGCA (site ATGAAGACTTG) | 2.64
53 | ATGAAGACATGGACCGGTTTTCCCGGTAATCCGTATTTGGA (site AGGAAGACTTG) | 0
54 | ATGAAGACATGGACCGGTTTTCCCGGTAATCCGTATTTGGA (site ATGAAGACTTC) | 1.52
55 | ATGACAACATGGACCGGTTTTCCCGGTAATCCGTATTTGGA (site ATGACAACTTC) | 1.22
56 | ATGACGCCATGGACCGGTTTTCCCGGTAATCCGTATTTGGA (site ATGACGCCTTC) | 0.0104
57 | ATGAGCACATGGACCGGTTTTCCCGGTAATCCGTATTTGGC (site ATGAGCACTGC) | 2.98
58 | ATGATAACATGGACCGGTTTTCCCGGTAATCCGTATTTGCC (site ATGATAACTGG) | 3.06
59 | ATGCAGACATGGACCGGTTTTCCCGGTAATCCGTATTTGTC (site ATGCAGACTGA) | 2.43
60 | ATGCCGCCATGGACCGGTTTTCCCGGTAATCCGTATTTGGG (site ATGCCGCCTCC) | 0.0227
61 | ATGCGTTCATGGACCGGTTTTCCCGGTAATCCGTATTTGAC (site ATGCGTTCTGT) | 2.37
62 | ATGCGTTCATGGACCGGTTTTCCCGGTAATCCGTATTTGCG (site ATGCGTTCTCG) | 1.96
63 | ATGCTACCATGGACCGGTTTTCCCGGTAATCCGTATTTGCT (site ATGCTACCTAG) | 0
64 | ATGCTACCATGGACCGGTTTTCCCGGTAATCCGTATTTGCT (site CTGCTACCTAG) | 0
65 | ATGCTACCATGGACCGGTTTTCCCGGTAATCCGTATTTGCT (site GTGCTACCTAG) | 0
66 | ATGCTACCATGGACCGGTTTTCCCGGTAATCCGTATTTGCT (site TTGCTACCTAG) | 0
67 | ATGGCAACATGGACCGGTTTTCCCGGTAATCCGTATTTGTG (site ATGGCAACTCA) | 0.02
68 | ATGGGCCCATGGACCGGTTTTCCCGGTAATCCGTATTTGTC (site ATGGGCCCTGA) | 0.504
